Source: ChEMBL document CHEMBL1201862, “PubChem BioAssay data set” (2004)
The source made the active and inactive calls.

Experiments:
[1] = system: Streptococcus sp. 'group A'; test: growth inhibition of control SK(-) GAS strain, dose response, counter-screen for streptokinase expression inhibitor project, luminescence, kanamycin, BacTiterGlo, confirmation (AID 1900); type: functional, organism-based
[2] = biological target: T1, Streptokinase A (Streptococcus pyogenes serotype M1, UniProt P10520); test: S. pyogenes streptokinase expression inhibitors, potency, dose response, plasminogen activation absorbance, OD405 (AID 1914); type: functional, Streptococcus pyogenes M1 GAS;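 also: secreted streptokinase activity via plasminogen activation per viability signal from cell pellet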
T1 sequence (P10520 whole entry): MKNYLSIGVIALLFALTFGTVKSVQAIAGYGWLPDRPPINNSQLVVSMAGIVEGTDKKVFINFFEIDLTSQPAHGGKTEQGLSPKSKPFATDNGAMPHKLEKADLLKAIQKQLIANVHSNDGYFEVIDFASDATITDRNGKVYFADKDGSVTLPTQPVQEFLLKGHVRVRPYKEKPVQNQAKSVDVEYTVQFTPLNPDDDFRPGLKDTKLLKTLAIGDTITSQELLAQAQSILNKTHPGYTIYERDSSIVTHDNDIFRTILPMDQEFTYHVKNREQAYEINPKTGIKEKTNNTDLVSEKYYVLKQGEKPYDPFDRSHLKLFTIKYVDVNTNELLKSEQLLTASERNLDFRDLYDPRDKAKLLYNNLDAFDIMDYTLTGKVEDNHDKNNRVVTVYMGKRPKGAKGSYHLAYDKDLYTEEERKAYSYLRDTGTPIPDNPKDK

[3] = growth suppression of PTEN-null colon cells, dose response, cell-based, HCT116 PTEN knockout (AID 1047); type: functional;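 also: HCT116 colon tumor cells with PTEN knocked out; cells exposed to compound for 60 hours before readout; potency for loss of cell viability measured by luminescence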
[4] = growth suppression of beta-catenin-knockout colon cells, dose response, cell-based, HCT116, human colon tumor (AID 1045); type: functional;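 also: HCT116 colon tumor cells with beta catenin knocked out; cells exposed to compound for 60 hours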
[5] = system: Streptococcus; test: Group A Streptococcus viability loss, dose response, counter-screen for streptokinase expression inhibitor project, luminescence, BacTiterGlo (AID 1915); type: functional, organism-based;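 also: potency for reduction of bacterial viability or growth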
[6] = biological target: X-box-binding protein 1 (Homo sapiens, UniProt P17861); type: functional, Cricetulus griseus;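 also: confirmatory dose-response counter-screen serving a CHOP assay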
X-box-binding protein 1, sequence (P17861 whole entry): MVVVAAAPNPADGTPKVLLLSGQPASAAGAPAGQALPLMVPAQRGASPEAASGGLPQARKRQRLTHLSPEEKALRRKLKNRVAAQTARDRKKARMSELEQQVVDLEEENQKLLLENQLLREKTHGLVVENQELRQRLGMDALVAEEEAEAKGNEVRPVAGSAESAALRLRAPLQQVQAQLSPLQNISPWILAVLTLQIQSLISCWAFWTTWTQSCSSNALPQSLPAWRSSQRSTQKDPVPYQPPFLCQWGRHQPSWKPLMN

[7] = biological target: Bcl-2-like protein 10 (Homo sapiens, UniProt Q9HD36); test: displacers of TR3 peptide from Bcl-B, primary screen, selectivity assay for Bfl-1 inhibitor project, biochemical, fluorescence polarization, FITC-TR3 peptide (AID 748);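 also: fluorescence polarization from a fluorescein-labelled TR3 peptide binding purified Bcl-B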
Bcl-2-like protein 10, sequence (Q9HD36 whole entry): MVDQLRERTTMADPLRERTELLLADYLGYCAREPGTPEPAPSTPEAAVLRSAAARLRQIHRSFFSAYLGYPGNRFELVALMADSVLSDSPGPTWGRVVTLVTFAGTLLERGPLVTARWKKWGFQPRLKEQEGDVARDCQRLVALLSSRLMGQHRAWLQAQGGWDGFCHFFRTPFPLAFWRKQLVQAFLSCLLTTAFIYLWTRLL

[8] = biological target: T2, Estrogen receptor beta (Homo sapiens, UniProt Q92731);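 also: recombinant ER-beta bound to coactivator SRC1 peptide in presence of estradiol agonist; inhibitors block coactivator peptide binding and lower the FRET signal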
T2 sequence (Q92731 whole entry): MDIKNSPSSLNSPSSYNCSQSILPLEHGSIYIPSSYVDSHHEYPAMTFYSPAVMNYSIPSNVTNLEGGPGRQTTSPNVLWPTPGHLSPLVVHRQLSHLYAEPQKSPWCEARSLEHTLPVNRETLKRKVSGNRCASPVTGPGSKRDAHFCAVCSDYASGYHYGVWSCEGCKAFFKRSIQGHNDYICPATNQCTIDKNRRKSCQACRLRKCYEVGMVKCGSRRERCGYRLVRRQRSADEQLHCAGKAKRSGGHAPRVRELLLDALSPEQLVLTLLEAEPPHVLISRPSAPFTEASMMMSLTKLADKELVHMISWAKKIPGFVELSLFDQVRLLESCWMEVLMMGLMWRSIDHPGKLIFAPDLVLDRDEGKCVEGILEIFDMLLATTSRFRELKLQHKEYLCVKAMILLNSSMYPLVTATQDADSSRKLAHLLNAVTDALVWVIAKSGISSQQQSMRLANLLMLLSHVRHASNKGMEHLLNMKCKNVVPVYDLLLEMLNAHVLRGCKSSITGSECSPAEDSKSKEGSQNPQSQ

[9] = biological target: T2, Estrogen receptor beta; test: ERβ–SRC-3 coactivator interaction inhibitors, confirmation, orthogonal assay, biochemical, ELISA, streptavidin-HRP readout (AID 1060)
[10] = THP-1 cell cytotoxicity, dose response, cytotoxicity control for Vif-APOBEC3G degradation inhibitor project, THP-1 cells (AID 1117359); type: functional; settings: Human immunodeficiency virus 1, THP-1
[11] = system: HEK293; test: NOD1 signaling inhibitors, primary screen, cell-based, luminescence, uHTS (AID 1578); type: functional; settings: Homo sapiens
[12] = system: HEK293; test: cells; type: functional, cell-based; settings: Homo sapiens
[13] = system: HEK293; test: cells; type: functional, cell-based; settings: Homo sapiens; remark: listed apart in the source
[14] = biological target: T3, Nucleotide-binding oligomerization domain-containing protein 2 (Homo sapiens, UniProt Q9HC29); test: NOD2 signaling inhibitors, cell-based, luminescence, uHTS, HEK293 (AID 1566); type: functional
T3 sequence (Q9HC29 whole entry, the tested form may be a part): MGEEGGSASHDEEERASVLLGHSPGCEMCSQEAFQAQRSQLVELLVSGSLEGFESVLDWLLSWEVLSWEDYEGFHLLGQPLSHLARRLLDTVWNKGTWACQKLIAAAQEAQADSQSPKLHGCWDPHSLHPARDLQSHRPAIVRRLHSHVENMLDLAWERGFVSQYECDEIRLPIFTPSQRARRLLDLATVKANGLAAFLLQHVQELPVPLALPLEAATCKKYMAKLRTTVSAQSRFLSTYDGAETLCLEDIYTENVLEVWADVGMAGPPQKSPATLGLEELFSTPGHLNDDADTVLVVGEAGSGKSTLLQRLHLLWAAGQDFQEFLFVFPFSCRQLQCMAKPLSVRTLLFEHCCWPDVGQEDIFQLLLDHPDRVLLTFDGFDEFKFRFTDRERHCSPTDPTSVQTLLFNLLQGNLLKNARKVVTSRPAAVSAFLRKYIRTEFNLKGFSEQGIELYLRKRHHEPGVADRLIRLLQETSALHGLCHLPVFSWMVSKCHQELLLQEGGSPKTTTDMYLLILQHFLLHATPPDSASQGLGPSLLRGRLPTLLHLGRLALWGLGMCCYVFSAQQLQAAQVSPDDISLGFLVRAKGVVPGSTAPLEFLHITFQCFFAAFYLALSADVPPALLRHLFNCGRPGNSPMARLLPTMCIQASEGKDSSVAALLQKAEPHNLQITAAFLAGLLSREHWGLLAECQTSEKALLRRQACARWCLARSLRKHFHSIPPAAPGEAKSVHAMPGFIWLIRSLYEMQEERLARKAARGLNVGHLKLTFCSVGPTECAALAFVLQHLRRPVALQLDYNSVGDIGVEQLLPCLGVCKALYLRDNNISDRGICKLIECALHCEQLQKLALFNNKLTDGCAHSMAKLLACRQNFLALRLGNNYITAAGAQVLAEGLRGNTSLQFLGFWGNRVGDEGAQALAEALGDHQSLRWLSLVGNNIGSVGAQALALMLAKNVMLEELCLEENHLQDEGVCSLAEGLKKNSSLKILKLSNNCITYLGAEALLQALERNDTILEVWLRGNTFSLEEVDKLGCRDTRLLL

[15] = system: HEK293; test: NOD2 signaling inhibitors in MDP-stimulated cells, cell-based, uHTS, luminescence (AID 2001); type: functional; settings: Homo sapiens
[16] = system: HEK293; test: cells; type: functional, cell-based; settings: Homo sapiens; remark: listed apart in the source
[17] = biological target: Tumor necrosis factor (Homo sapiens, UniProt P01375); test: TNFa-triggered NF-kB activation inhibitors, SAR follow-up, cell-based, revised (AID 2337); type: functional
Tumor necrosis factor, sequence (P01375 whole entry, the tested form may be a part): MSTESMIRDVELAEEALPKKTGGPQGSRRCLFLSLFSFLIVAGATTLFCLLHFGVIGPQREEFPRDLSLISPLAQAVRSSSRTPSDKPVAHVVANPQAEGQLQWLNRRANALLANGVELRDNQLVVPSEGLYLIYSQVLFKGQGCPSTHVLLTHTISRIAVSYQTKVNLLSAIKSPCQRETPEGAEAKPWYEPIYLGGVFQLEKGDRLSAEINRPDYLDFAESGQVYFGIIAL

[18] = biological target: T4, Nucleotide-binding oligomerization domain-containing protein 1 (Homo sapiens, UniProt Q9Y239); test: NOD1 signaling inhibitors, SAR follow-up, revised (AID 2333); type: functional
T4 sequence (Q9Y239 whole entry): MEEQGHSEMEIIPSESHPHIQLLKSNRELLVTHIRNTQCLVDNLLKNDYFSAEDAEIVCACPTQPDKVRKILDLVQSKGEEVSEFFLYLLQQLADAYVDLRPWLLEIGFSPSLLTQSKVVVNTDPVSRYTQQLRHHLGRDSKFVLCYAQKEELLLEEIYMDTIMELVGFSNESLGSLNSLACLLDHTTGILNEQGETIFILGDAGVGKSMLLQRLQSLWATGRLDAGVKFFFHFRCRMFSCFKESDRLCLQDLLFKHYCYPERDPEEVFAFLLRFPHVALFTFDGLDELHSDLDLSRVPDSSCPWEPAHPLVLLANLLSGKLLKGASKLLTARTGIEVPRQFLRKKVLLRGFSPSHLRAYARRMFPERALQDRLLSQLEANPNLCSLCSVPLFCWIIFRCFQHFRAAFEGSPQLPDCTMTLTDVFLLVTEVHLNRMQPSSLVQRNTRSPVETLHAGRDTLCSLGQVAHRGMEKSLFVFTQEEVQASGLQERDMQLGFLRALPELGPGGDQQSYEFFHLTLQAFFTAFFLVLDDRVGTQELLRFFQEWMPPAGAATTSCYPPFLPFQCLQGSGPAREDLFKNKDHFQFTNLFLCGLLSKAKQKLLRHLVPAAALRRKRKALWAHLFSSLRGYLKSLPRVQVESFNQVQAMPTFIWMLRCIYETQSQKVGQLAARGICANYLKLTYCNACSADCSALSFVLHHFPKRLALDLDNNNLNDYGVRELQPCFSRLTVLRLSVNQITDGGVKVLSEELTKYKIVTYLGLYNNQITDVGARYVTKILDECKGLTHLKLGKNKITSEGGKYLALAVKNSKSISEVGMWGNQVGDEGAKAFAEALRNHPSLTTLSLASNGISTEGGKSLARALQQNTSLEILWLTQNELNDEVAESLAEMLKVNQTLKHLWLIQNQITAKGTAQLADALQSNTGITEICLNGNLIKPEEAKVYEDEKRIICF

[19] = biological target: T5, Heat shock factor protein 1 (Mus musculus, UniProt P38532); test: HSF1 potentiators in luciferase reporter cells, confirmation, cell-based, NIH3T3, luminescence, dose retest (AID 435004); type: functional;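 also: stress induced by proteasome inhibitor MG132 added 30 min after compound; luciferase reporter driven by HSF1 response element in NIH3T3 cells; actives raise luminescence as potentiators of the MG132 stress response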
T5 sequence (P38532 whole entry): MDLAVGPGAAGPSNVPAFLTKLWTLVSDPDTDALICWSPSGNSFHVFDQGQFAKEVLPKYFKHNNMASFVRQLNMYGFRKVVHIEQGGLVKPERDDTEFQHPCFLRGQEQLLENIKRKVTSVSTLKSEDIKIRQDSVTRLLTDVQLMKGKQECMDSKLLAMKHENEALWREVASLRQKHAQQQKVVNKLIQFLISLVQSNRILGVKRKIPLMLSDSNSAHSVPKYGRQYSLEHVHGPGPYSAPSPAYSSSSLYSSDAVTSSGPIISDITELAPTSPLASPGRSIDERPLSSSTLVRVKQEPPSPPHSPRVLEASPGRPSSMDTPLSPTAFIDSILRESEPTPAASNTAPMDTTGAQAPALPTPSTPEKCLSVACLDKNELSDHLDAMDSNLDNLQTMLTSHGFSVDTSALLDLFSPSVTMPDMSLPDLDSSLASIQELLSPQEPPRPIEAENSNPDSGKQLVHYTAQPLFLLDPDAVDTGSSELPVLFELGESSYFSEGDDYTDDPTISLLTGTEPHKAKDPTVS

[20] = biological target: T3, Nucleotide-binding oligomerization domain-containing protein 2; test: PubChem AID 2334; type: functional
[21] = biological target: T6, Corticotropin-releasing factor receptor 2/Corticotropin-releasing factor-binding protein (Homo sapiens, UniProt P24387+Q13324); test: Dose Response confirmation of uHTS hits for small molecule antagonists of the CRF-binding protein and CRF-R2 receptor complex.; type: functional; settings: read-out: IC50_Mean
T6 sequence (Q13324 whole entry): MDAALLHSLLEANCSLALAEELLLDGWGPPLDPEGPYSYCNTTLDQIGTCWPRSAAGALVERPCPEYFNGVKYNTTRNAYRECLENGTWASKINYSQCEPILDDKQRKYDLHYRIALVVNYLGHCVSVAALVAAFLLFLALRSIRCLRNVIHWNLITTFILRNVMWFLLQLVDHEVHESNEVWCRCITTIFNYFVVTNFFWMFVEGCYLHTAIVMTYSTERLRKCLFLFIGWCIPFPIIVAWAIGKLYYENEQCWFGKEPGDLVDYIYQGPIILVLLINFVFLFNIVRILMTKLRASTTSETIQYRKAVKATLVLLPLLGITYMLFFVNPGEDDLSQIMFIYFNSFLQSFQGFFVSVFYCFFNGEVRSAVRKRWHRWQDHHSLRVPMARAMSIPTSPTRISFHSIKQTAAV
T6 sequence (P24387 whole entry): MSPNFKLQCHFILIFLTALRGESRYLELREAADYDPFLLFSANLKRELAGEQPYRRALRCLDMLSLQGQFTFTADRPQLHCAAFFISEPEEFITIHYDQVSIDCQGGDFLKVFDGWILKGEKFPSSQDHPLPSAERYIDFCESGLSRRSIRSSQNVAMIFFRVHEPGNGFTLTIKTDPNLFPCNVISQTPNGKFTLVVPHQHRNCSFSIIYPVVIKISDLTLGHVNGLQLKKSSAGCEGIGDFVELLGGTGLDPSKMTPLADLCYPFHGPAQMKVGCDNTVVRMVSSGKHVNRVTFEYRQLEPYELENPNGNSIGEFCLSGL

[22] = biological target: T6, Corticotropin-releasing factor receptor 2/Corticotropin-releasing factor-binding protein; test: activators of CRF receptor 2 with binding protein – uHTS hits, confirmation (AID 602473); type: functional; settings: read-out: EC50_Mean
[23] = system: HEK293; test: cells; settings: Homo sapiens
[24] = HepG2 cell cytotoxicity, dose response, cytotoxicity control for non-replicating M. tuberculosis project (AID 489018); type: functional; settings: Mycobacterium tuberculosis
[25] = Vero E6 cell cytotoxicity, dose response, cytotoxicity control for non-replicating M. tuberculosis project, secondary assay (AID 492998); type: functional, VeroE6; settings: Vero C1008
[26] = cells; type: functional

Question: For `Oc1[nH]c2ccccc2c1N=NC(S)=NCCc1ccccc1`, which EC50 [1] is on record?
Answer: The EC50 was 4.7 µM (active).

Question: And the EC50 [2]?
Answer: Its EC50 is > 150 µM (not active).

Question: What about the EC50 [3] of the same compound?
Answer: The EC50 was 24 µM (active).

Question: And the EC50 [4]?
Answer: Its EC50 is 23 µM (active).

Question: And the EC50 [5]?
Answer: The EC50 was 10.9 µM (active).

Question: What about the “Absolute IC50 (XBP1)” value [6] of the same compound?
Answer: The value was 10 µM.

Question: With `O=C(CSc1ccc(Cl)cc1)c1ccco1` as the compound, how does the IC50 [7] read?
Answer: Its IC50 is 25.5 µM (active).

Question: What about the IC50 [8] of the same compound?
Answer: The IC50 was < 1.56 µM (active).

Question: And the IC50 [9]?
Answer: The IC50 was 17.9 µM (not active).

Question: What about the CC50 [10] of the same compound?
Answer: Its CC50 is > 40 µM (active).

Question: What does the source list for `O=C(NC(=S)N1CCN(c2ccc(F)cc2)CC1)c1cccs1`?
Answer: EC50 [11]: > 20 µM (inactive); IC50 [12]: > 20 µM (inactive); IC50 [13]: > 20 µM (inactive); EC50 [14]: > 20 µM (inactive); IC50 [15]: 10 µM (inactive); IC50 [16]: > 20 µM (inactive); IC50 [17]: > 20 µM (inactive); IC50 [18]: 19.4 µM (active); EC50 [19]: > 260 µM (inactive); IC50 [20]: > 20 µM (inactive); IC50 [21]: > 47.1 µM (inactive); EC50 [22]: > 53 µM (inactive); IC50 [23]: > 20 µM (inactive)

Question: With `COc1ccc(CCNc2nc(-c3ccccn3)cs2)cc1OC` as the compound, how does the EC50 [1] read?
Answer: Its EC50 is 14.3 µM (active).

Question: What about the EC50 [2] of the same compound?
Answer: The EC50 was > 150 µM (not active).

Question: And the EC50 [5]?
Answer: Its EC50 is > 150 µM (not active).

Question: And the CC50 [24]?
Answer: Its CC50 is > 20 µM (active).

Question: And the CC50 [25]?
Answer: Its CC50 is 14.7 µM (active).

Question: And the IC50 [26]?
Answer: Its IC50 is 1.14 µM (active).

Question: Which IC50 [17] does the source give for `O=C(C1CC1)N1CCc2cc(S(=O)(=O)N3CCN(c4ccc(Cl)cc4)CC3)ccc21` here?
Answer: Its IC50 is > 20 µM (inactive).

Question: What about the IC50 [18] of the same compound?
Answer: The IC50 was > 20 µM (inactive).

Question: And the IC50 [20]?
Answer: The IC50 was > 20 µM (inactive).

Question: And the IC50 [23]?
Answer: The IC50 was > 20 µM (inactive).
